Source: patent US20140357577A1, “HIV Membrane Fusion Inhibitors” (priority 2011, published 2014)
Starred links: 1 amine or outer side, 2 acyl side, 3 side chain; linkers in the order of their positions; H or OH if unused. Non-standard residues stand in square brackets, D forms with d. No end group written: not given here. *: point of attachment. cholesteryl‑oxycarbonylmethyl = CC(C)CCC[C@@H](C)[C@H]1CC[C@H]2[C@@H]3CC=C4C[C@@H](OC(=O)C*)CC[C@]4(C)[C@H]3CC[C@]12C; Suc = O=C(CCC(=O)[*:2])[*:1]; hCys = N[C@@H](CCS)C(=O)O; Tba = not defined here

Tests used:
[1] = tested on: HIV mutant virus strain HXB2D with mutation V38A in the gp41 gene; experiment: Standard AVE, HXB2D site directed mutant V38A; assay type: cell-based, HIV-1; settings: fold change vs wild type strain HXB2D
From the text: • Standard Anti-Viral-Experiment “AVE” (wild type HIV strain IIIB+HIV strain HXB2D side directed mutants V38A and Q40H)
The HIV-1 replication assay measures virus replication (HIV wild type virus strain 111B or HXB2D, or a HIV mutant virus strain HXB2D with mutation V38A or Q40H in the gp41 gene) as an induction of enhanced green fluorescent protein (EGFP) expression. The indicator MT4-LTR-EGFP cells contain an EGFP gene under the control of the HIV-1 LTR promoter sequence. Successful HIV-1 infection results in viral Tat protein expression and subsequent induction of EGFP expression. Compounds/peptides inhibiting HIV-1 infection are expected to reduce EGFP expression as compared to the untreated HIV-infected control.
Serial 4-fold dilutions of test compounds/peptides were mixed with HIV-1 (IIIB, HXB2D, or a HXB2D mutant virus (V38A or Q40H)) and MT4-LTR-EGFP cells and incubated at 37° C. After 3 days, the wells were examined for EGFP expression using an argon laser-scanning microscope. The effective compound/peptide concentration inhibiting 50% of the virus-induced EGFP signal (EC50) was determined by linear interpolation of the EGFP signal vs. logarithm of the compound concentration; (T20, C34 and Sifuvirtide were added as reference compounds). For the V38A and Q40H mutant viruses, results were reported as a fold change in EC50, as compared with a drug-susceptible wild type strain HXB2D, which forms the backbone of the mutant virus. • Standard AVE (50% Human Serum)

HIV-IIIB + 50% HS = experiment: Standard AVE (50% Human Serum), HIV-1 replication assay in MT4-LTR-EGFP cells; assay type: cell-based; settings: fold change vs EC50 in the assay without human serum
Outline: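 MT4-LTR-EGFP cells infected with HIV-1 alongside 4-fold serial compound dilutions in 50% human serum, 3 days at 37 °C. EGFP read by laser-scanning microscopy; EC50 by linear interpolation against log concentration, reported as fold change versus EC50 without serum.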

[2] = tested on: HIV mutant virus strain HXB2D with mutation Q40H in the gp41 gene; experiment: Standard AVE, HXB2D site directed mutant Q40H; assay type: cell-based, HIV-1; settings: fold change vs wild type strain HXB2D
Outline: (§1)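 MT4-LTR-EGFP cells infected with HIV-1 IIIB, HXB2D or HXB2D gp41 mutants V38A/Q40H alongside serial 4-fold compound dilutions, 3 days at 37° C. EGFP read by laser-scanning microscopy; EC50 by linear interpolation against log concentration. Mutant results given as fold change in EC50 versus wild-type HXB2D.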

[3] = tested on: HIV wild type virus strain IIIB; experiment: Standard Anti-Viral-Experiment (AVE), HIV-1 replication assay in MT4-LTR-EGFP cells, wild type IIIB; assay type: cell-based; settings: 3 days, EGFP signal
Outline: as §1

[4] = molecular target: gp41 of HIV-1 strain HXB2D with mutation Q40H (HIV-1 strain HXB2D) (UniProt P04578)
[5] = molecular target: gp41 of HIV-1 wild type strain IIIB (HIV-1 strain IIIB)

Substance | HIV-HXB2D V38A mutant (fold change in EC50) [1] | HIV-IIIB + 50% HS (Fold change in EC50) (HIV-IIIB + 50% HS) | HIV-HXB2D Q40H mutant (fold change in EC50) [2] | EC50 [3] | fold change in EC50, HIV-HXB2D Q40H mutant [4] | EC50 of HIV-IIIB replication (EGFP) [5] | fold change in EC50, HIV-IIIB + 50% HS [5]
Suc-ANYLALIEAL-Tba-RAAQEQQEKNEAALR-NH2 (reading uncertain; also: chains 1 and 2 are one peptide joined through Tba residue, printed as Suc-ANYLALIEAL-Tba-RAAQEQQEKNEAALR-NH2) [Peptide 11] | 26 | 0.8 | 368 | 1 nM |  |  | 
Ac-A[hCys]YAA[hCys]IEALIRAAQEQQEKNEAALR-NH2 (cysteine pairing not given here) [Peptide 77] | 39 | 3 | 304 | 6 nM |  |  | 
Ac-ACY-Cha-ACIEALIRAAQEQQEKNEAALR-NH2 [Peptide 59] | 18 | 3 | 44 | 3 nM |  |  | 
Ac-ACYAACIEALIRAAQEQQEKNEAALRGSGC(cholesteryl-oxycarbonylmethyl)-NH2 [87] (Ac-ACYAACIEALIRAAQEQQEKNEAALRGSGC(cholesteryl‑oxycarbonylmethyl)-NH2; cysteine pairing not given here) [Peptide 87] | 1 | 14 | 5 | 0.1 nM |  |  | 
Suc-Hcy-YLA-Hcy-IEALIRAAREQQEKNEALLR-NH2 (Suc-[hCys]YLA[hCys]IEALIRAAREQQEKNEALLR-NH2; also: cyclised, bridge not given here) [Peptide 28] | 4 | 4 | 25 | 0.6 nM |  |  | 
T20 (peptide) |  |  |  |  | 49.7 fold | 17 nM | 3.9 fold
Suc-CYLACIEELIRKAGEQQEKNEAAL-Tba-NH2 (Suc-CYLACIEELIRKAGEQQEKNEAAL-{Tba-NH2}; cysteine pairing not given here; reading uncertain; also: printed as Suc-CYLACIEELIRKAGEQQEKNEAAL-Tba-NH2) [Peptide 25] | 31 | 3 | 352 | 0.6 nM |  |  | 
Sifuvirtide-PBD (peptide) |  |  |  |  | > 3 fold | 36400 nM | 0.8 fold
Suc-ACYLAC)EELIRKAQEQQEKNEAALR-NH2 [Peptide 31] | 14 | 0.4 | 238 | 1 nM |  |  | 
Suc-CYLACIEELIRKAQEQQEKNEAAL-Tba-NH2 [23] (Suc-CYLACIEELIRKAQEQQEKNEAAL-{Tba-NH2}; cysteine pairing not given here; reading uncertain; also: printed as Suc-CYLACIEELIRKAQEQQEKNEAAL-Tba-NH2) [Peptide 23] | 45 | 0.6 | 807 | 1 nM |  |  | 
C34 (peptide) |  |  |  |  | 8.8 fold | 266 nM | 0.8 fold
